“And” between values parts separate entries of the source, which are not always exact repeats. Identical values can stand only once.
Columns and labels:
[1] = biological target: T1, H+,K+-ATPase (Sus scrofa, UniProt P19156); test: Dose-dependent inhibition of H+,K+-ATPase activity, membrane fractions; conditions: for H+,K+-ATPase activity, raw data of dose-dependent inhibition: single replicate values
[2] = biological target: T1, H+,K+-ATPase; test: K+-dependent ATPase assay, double reciprocal plot and Ki estimation; assay type: biochemical, pig; design: H^+,K^+-ATPase-enriched membrane fractions were purified from pig stomach; from tissue; host or cells: pig stomach (gastric membrane fractions); reciprocal K+-stimulated ATPase activity, Lineweaver-Burk raw data: unit not given here; conditions: for reciprocal K+-stimulated ATPase activity, Lineweaver-Burk raw data: replicate values
Description: Data measured from 96-well plate contained triplicates of four different sets of K^+-dependent ATPase assays in the absence or presence of three different concentrations of synthesized compounds. Data were corrected for background values in the absence of K^+ at each compound concentration, and plot them against the double reciprocal axes in Supplementary Fig. 5. Data were also fitted by using simultaneous nonlinear regression as described previously to estimate their Ki values.

T1 sequence (P19156 2-1034 limits assumed): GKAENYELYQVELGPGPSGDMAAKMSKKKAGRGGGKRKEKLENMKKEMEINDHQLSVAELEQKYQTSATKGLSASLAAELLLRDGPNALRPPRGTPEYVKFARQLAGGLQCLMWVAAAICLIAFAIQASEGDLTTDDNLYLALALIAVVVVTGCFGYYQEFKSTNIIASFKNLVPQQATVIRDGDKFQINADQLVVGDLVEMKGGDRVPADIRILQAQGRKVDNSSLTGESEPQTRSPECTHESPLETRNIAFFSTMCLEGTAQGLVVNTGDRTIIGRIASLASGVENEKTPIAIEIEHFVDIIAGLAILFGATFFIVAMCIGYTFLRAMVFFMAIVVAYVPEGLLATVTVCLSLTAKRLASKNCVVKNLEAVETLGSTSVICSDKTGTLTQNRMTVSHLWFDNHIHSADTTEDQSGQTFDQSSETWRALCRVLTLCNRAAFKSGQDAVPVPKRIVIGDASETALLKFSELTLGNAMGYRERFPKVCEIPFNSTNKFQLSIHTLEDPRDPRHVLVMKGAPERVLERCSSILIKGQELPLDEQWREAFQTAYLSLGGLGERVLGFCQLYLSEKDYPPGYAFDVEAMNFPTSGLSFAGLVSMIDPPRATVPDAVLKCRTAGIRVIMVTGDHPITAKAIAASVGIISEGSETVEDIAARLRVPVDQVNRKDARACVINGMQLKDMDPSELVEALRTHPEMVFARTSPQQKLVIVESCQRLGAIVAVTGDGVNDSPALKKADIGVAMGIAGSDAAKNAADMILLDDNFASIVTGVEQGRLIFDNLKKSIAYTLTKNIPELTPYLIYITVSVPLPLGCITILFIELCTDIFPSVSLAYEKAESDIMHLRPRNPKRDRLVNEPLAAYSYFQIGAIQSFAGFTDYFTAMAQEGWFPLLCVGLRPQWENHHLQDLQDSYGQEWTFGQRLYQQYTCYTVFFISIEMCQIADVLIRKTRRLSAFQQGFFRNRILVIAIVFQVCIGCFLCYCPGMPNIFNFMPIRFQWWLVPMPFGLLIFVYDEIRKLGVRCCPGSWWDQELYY
T1 sequence (P18434 whole entry partner): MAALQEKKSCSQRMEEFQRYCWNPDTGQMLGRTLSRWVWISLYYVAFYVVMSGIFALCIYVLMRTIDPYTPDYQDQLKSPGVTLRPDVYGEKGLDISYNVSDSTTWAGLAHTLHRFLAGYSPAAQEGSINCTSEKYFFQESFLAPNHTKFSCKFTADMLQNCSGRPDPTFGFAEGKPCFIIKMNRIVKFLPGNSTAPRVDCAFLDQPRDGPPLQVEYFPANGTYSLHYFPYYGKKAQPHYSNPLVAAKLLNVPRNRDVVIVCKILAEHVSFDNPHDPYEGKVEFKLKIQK

Structure (SMILES): CNCC#CCOCc1cc(Cl)ccc1-c1ccc(Cl)cc1 [DQ-02]
- IC50 [1]: 39.9 ± 3.3 µM
- H+,K+-ATPase activity, raw data of dose-dependent inhibition ([1]; [PCAB] -3.30103 (log, unit not given)): -3.48 and -2.88 and 2.99 and 4.4 and 2.96 and 5.89
- H+,K+-ATPase activity, raw data of dose-dependent inhibition ([1]; [PCAB] -3.52288 (log, unit not given)): 0.86 and 1.16 and 4.19 and 5.19 and 4.89 and 4.75
- H+,K+-ATPase activity, raw data of dose-dependent inhibition ([1]; [PCAB] -4 (log, unit not given)): 42.01 and 43.89 and 31.47 and 31.59 and 28.65 and 29.6
- H+,K+-ATPase activity, raw data of dose-dependent inhibition ([1]; [PCAB] -4.30103 (log, unit not given)): 44.62 and 46.8 and 48.6 and 46.17 and 46.72 and 37.34
- H+,K+-ATPase activity, raw data of dose-dependent inhibition ([1]; [PCAB] -4.52288 (log, unit not given)): 56.61 and 55.53 and 56.64 and 57.99 and 58.21 and 59.24
- H+,K+-ATPase activity, raw data of dose-dependent inhibition ([1]; [PCAB] -5 (log, unit not given)): 76.31 and 74.65 and 77.66 and 80.01 and 78.54 and 73.73
- H+,K+-ATPase activity, raw data of dose-dependent inhibition ([1]; [PCAB] -5.52288 (log, unit not given)): 94.23 and 90.64 and 95.59 and 93.89 and 93 and 95.88
- H+,K+-ATPase activity, raw data of dose-dependent inhibition ([1]; [PCAB] -6 (log, unit not given)): 97.7 and 98.02 and 94.2 and 97.49 and 93.51 and 99.15
- H+,K+-ATPase activity, raw data of dose-dependent inhibition ([1]; [PCAB] -6.30103 (log, unit not given)): 97.98 and 96.67 and 103.79 and 104.81 and 106.59 and 107.52
- H+,K+-ATPase activity, raw data of dose-dependent inhibition ([1]; [PCAB] -7 (log, unit not given)): 99.57 and 99.45 and 98.18 and 98.05 and 96.63 and 99.09
- H+,K+-ATPase activity, raw data of dose-dependent inhibition ([1]; [PCAB] -8 (log, unit not given)): 97.5 and 100.13 and 97.23 and 97.51 and 96.21 and 102.69
- H+,K+-ATPase activity, raw data of dose-dependent inhibition ([1]; [PCAB] -11 (log, unit not given; possibly placeholder for no compound)): 99.85 and 98.59 and 101.41 and 99.82 and 98.22 and 99.87
- reciprocal K+-stimulated ATPase activity, Lineweaver-Burk raw data ([2]; compound concentration 5, 1/KCl 0.05 (units not given)): 0.0047 and 0.0046 and 0.005
- reciprocal K+-stimulated ATPase activity, Lineweaver-Burk raw data ([2]; compound concentration 5, 1/KCl 0.1 (units not given)): 0.0059 and 0.0058 (2×)
- reciprocal K+-stimulated ATPase activity, Lineweaver-Burk raw data ([2]; compound concentration 5, 1/KCl 0.125 (units not given)): 0.0059 (2×) and 0.006
- reciprocal K+-stimulated ATPase activity, Lineweaver-Burk raw data ([2]; compound concentration 5, 1/KCl 0.2 (units not given)): 0.0059 (2×) and 0.0061
- reciprocal K+-stimulated ATPase activity, Lineweaver-Burk raw data ([2]; compound concentration 5, 1/KCl 0.5 (units not given)): 0.0114 and 0.0113 and 0.0109
- reciprocal K+-stimulated ATPase activity, Lineweaver-Burk raw data ([2]; compound concentration 5, 1/KCl 1 (units not given)): 0.0177 and 0.0175 and 0.0166
- reciprocal K+-stimulated ATPase activity, Lineweaver-Burk raw data ([2]; compound concentration 5, 1/KCl 2 (units not given)): 0.0312 and 0.0335 and 0.0294
- reciprocal K+-stimulated ATPase activity, Lineweaver-Burk raw data ([2]; compound concentration 10, 1/KCl 0.05 (units not given)): 0.0052
- reciprocal K+-stimulated ATPase activity, Lineweaver-Burk raw data ([2]; compound concentration 10, 1/KCl 0.1 (units not given)): 0.0066 and 0.0067 and 0.0069
- reciprocal K+-stimulated ATPase activity, Lineweaver-Burk raw data ([2]; compound concentration 10, 1/KCl 0.125 (units not given)): 0.0073 and 0.0075 and 0.0074
- reciprocal K+-stimulated ATPase activity, Lineweaver-Burk raw data ([2]; compound concentration 10, 1/KCl 0.2 (units not given)): 0.0079 and 0.0078 and 0.0077
- reciprocal K+-stimulated ATPase activity, Lineweaver-Burk raw data ([2]; compound concentration 10, 1/KCl 0.5 (units not given)): 0.0173 and 0.016 and 0.018
- reciprocal K+-stimulated ATPase activity, Lineweaver-Burk raw data ([2]; compound concentration 10, 1/KCl 1 (units not given)): 0.0258 (2×) and 0.029
- reciprocal K+-stimulated ATPase activity, Lineweaver-Burk raw data ([2]; compound concentration 10, 1/KCl 2 (units not given)): 0.0498 and 0.0514 and 0.0558
- reciprocal K+-stimulated ATPase activity, Lineweaver-Burk raw data ([2]; compound concentration 40, 1/KCl 0.05 (units not given)): 0.0101 and 0.0102 and 0.0088
- reciprocal K+-stimulated ATPase activity, Lineweaver-Burk raw data ([2]; compound concentration 40, 1/KCl 0.1 (units not given)): 0.0146 and 0.0158 and 0.0151
- reciprocal K+-stimulated ATPase activity, Lineweaver-Burk raw data ([2]; compound concentration 40, 1/KCl 0.125 (units not given)): 0.0175 and 0.0157 and 0.013
- reciprocal K+-stimulated ATPase activity, Lineweaver-Burk raw data ([2]; compound concentration 40, 1/KCl 0.2 (units not given)): 0.0176 and 0.0181 and 0.0182
- reciprocal K+-stimulated ATPase activity, Lineweaver-Burk raw data ([2]; compound concentration 40, 1/KCl 0.5 (units not given)): 0.0393 and 0.036 and 0.0314
- reciprocal K+-stimulated ATPase activity, Lineweaver-Burk raw data ([2]; compound concentration 40, 1/KCl 1 (units not given)): 0.0754 and 0.0762 and 0.0737
- reciprocal K+-stimulated ATPase activity, Lineweaver-Burk raw data ([2]; compound concentration 40, 1/KCl 2 (units not given)): 0.1646 and 0.1689 and 0.18
- Ki ([2]; double reciprocal plot analysis, K+-competitive, read-out: estimated inhibition constant Ki): 4.65 µM
- inhibition mode ([2]; double reciprocal plot, versus K+): typical competitive inhibition pattern

— article PMC10509173, “Deep learning driven de novo drug design based on gastric proton pump structures” (Communications Biology, 2023)
